Like-named read-outs stand apart in the source and are kept apart here.
Columns and labels:
Test in all cases: microbe, parasite or virus in culture
Type in all cases: cell-based
C. freundii = conditions: Citrobacter freundii
E. coli = system: E. coli
K. aerogenes = conditions: Klebsiella aerogenes
K. oxytoca = conditions: Klebsiella oxytoca
K. pneumoniae = system: K. pneumoniae

How did the MIC (C. freundii; strain 134390, AmpC/TEM-1) turn out when `CC(C)(O/N=C(\C(=O)N[C@@H]1C(=O)N2C(C(=O)[O-])=C(C[n+]3ccccc3)CS[C@H]12)c1csc(N)n1)C(=O)O` [CAZ] was run?
Its MIC is 16 mg/L.

What about the MIC (C. freundii; strain 241181, AmpC/TEM-163) of the same compound?
Its MIC is 8 mg/L.

What about the MIC (E. coli) of the same compound?
The MIC was 64 mg/L.

And the MIC (E. coli; Escherichia coli, strain 469, AmpC/SHV-12/TEM-1, read-out: MIC)?
Its MIC is 64 mg/L.

What about the MIC (E. coli; Escherichia coli, strain 1924, TEM-12, read-out: MIC) of the same compound?
The MIC was 32 mg/L.

What about the MIC (E. coli; Escherichia coli, strain 664507, OXA-48, read-out: MIC) of the same compound?
Its MIC is 64 mg/L.

And the MIC (E. coli; Escherichia coli, strain 664516, OXA-48, read-out: MIC)?
Its MIC is 64 mg/L.

And the MIC (E. coli; Escherichia coli, strain 664520, OXA-48, read-out: MIC)?
Its MIC is 64 mg/L.

What about the MIC (E. coli; Escherichia coli, strain 664522, OXA-48, read-out: MIC) of the same compound?
The MIC was 64 mg/L.

And the MIC (E. coli; Escherichia coli, strain 664523, OXA-48, read-out: MIC)?
The MIC was 64 mg/L.

What about the MIC (E. coli; Escherichia coli, strain 873435, CTX-M-15, read-out: MIC) of the same compound?
The MIC was 128 mg/L.

What about the MIC (E. coli; Escherichia coli, strain 875627, CTX-M-27, read-out: MIC) of the same compound?
Its MIC is 8 mg/L.

And the MIC (E. coli; Escherichia coli, strain 878358, TEM-1/CTX-M, read-out: MIC)?
The MIC was 32 mg/L.

And the MIC (E. coli; Escherichia coli, strain 890500, TEM-1/CTX-M-14, read-out: MIC)?
Its MIC is 4 mg/L.

And the MIC (E. coli; Escherichia coli, strain 1275635, VIM-23, read-out: MIC)?
The MIC was 128 mg/L.

What about the MIC (E. coli; Escherichia coli, strain 1459453, NDM-7, read-out: MIC) of the same compound?
Its MIC is no less than 256 mg/L.

What about the MIC (E. coli; Escherichia coli, strain CDC-0069, NDM, read-out: MIC) of the same compound?
Its MIC is no less than 256 mg/L.

And the MIC (E. coli; Escherichia coli, strain CDC-0149, NDM, read-out: MIC)?
The MIC was no less than 256 mg/L.

What about the MIC (E. coli; Escherichia coli, strain EC1552 2A, AmpC/CMY-2/TEM-1, CTX-M-15, read-out: MIC) of the same compound?
The MIC was 64 mg/L.

What about the MIC (E. coli; Escherichia coli, strain ESBL 5, CTX-M-15/TEM-1, read-out: MIC) of the same compound?
Its MIC is 128 mg/L.

What about the MIC (E. coli; Escherichia coli, strain SI-LP377, CTX-M-2, read-out: MIC) of the same compound?
Its MIC is 8 mg/L.

And the MIC (E. coli; Escherichia coli, strain SI-M004, SHV-2/GES-12, read-out: MIC)?
The MIC was no less than 256 mg/L.

And the MIC (E. coli; Escherichia coli, strain SI-PO26, AmpC/CMY-2/TEM-1, read-out: MIC)?
Its MIC is 64 mg/L.

What about the MIC (E. coli; Escherichia coli, strain SI-V502, TEM-29/CTX-M-15, read-out: MIC) of the same compound?
Its MIC is 32 mg/L.

And the MIC (E. coli; Escherichia coli, strain VER, OXA-48, read-out: MIC)?
Its MIC is 0.5 mg/L.

And the MIC (K. aerogenes; strain 73546, AmpC)?
Its MIC is 32 mg/L.

And the MIC (K. aerogenes; strain 110099, AmpC/SHV-12)?
The MIC was 128 mg/L.

And the MIC (K. aerogenes; strain 111707, AmpC/TEM-1)?
The MIC was 32 mg/L.

What about the MIC (K. oxytoca) of the same compound?
Its MIC is no less than 256 mg/L.

What about the MIC (K. oxytoca; strain 134943, CMY-2/TEM-1, read-out: MIC) of the same compound?
Its MIC is 128 mg/L.

And the MIC (K. pneumoniae)?
The MIC was 64 mg/L.

And the MIC (K. pneumoniae; Klebsiella pneumoniae, strain 6299, OXA-163, read-out: MIC)?
The MIC was 128 mg/L.

What about the MIC (K. pneumoniae; Klebsiella pneumoniae, strain 178279, SHV-12/TEM-1/AmpC, read-out: MIC) of the same compound?
The MIC was 128 mg/L.

And the MIC (K. pneumoniae; Klebsiella pneumoniae, strain 196477, AmpC, read-out: MIC)?
The MIC was no less than 256 mg/L.

And the MIC (K. pneumoniae; Klebsiella pneumoniae, strain 212027, AmpC/FOX-5/TEM-1, read-out: MIC)?
Its MIC is 128 mg/L.

What about the MIC (K. pneumoniae; Klebsiella pneumoniae, strain 515746, OXA-48, read-out: MIC) of the same compound?
Its MIC is 64 mg/L.

What about the MIC (K. pneumoniae; Klebsiella pneumoniae, strain 664438, OXA-48, read-out: MIC) of the same compound?
The MIC was 128 mg/L.

And the MIC (K. pneumoniae; Klebsiella pneumoniae, strain 664439, OXA-48, read-out: MIC)?
The MIC was 128 mg/L.

What about the MIC (K. pneumoniae; Klebsiella pneumoniae, strain 722870, OXA-48, read-out: MIC) of the same compound?
The MIC was 64 mg/L.

And the MIC (K. pneumoniae; Klebsiella pneumoniae, strain 752334, OXA-48, read-out: MIC)?
The MIC was 128 mg/L.

What about the MIC (K. pneumoniae; Klebsiella pneumoniae, strain 769972, OXA-48, read-out: MIC) of the same compound?
The MIC was 64 mg/L.

And the MIC (K. pneumoniae; Klebsiella pneumoniae, strain 787422, OXA-48, read-out: MIC)?
The MIC was 8 mg/L.

What about the MIC (K. pneumoniae; Klebsiella pneumoniae, strain 856819, SHV-11/VIM-1, read-out: MIC) of the same compound?
The MIC was no less than 256 mg/L.

And the MIC (K. pneumoniae; Klebsiella pneumoniae, strain 873460, SHV-30/CTX-M-15, read-out: MIC)?
Its MIC is 64 mg/L.

And the MIC (K. pneumoniae; Klebsiella pneumoniae, strain 874328, SHV-11/CTX-M-15/NDM-1, read-out: MIC)?
Its MIC is no less than 256 mg/L.

And the MIC (K. pneumoniae; Klebsiella pneumoniae, strain 882956, SHV-31/DHA-1/VIM-1, read-out: MIC)?
The MIC was no less than 256 mg/L.

What about the MIC (K. pneumoniae; Klebsiella pneumoniae, strain 890066, SHV-33/TEM-33/CTX-M-15/IMP-1, read-out: MIC) of the same compound?
The MIC was no less than 256 mg/L.

What about the MIC (K. pneumoniae; Klebsiella pneumoniae, strain 892694, SHV-12/TEM-1/CTX-M-15/OXA-48/ACT, read-out: MIC) of the same compound?
Its MIC is no less than 256 mg/L.

What about the MIC (K. pneumoniae; Klebsiella pneumoniae, strain 919877, SHV-OSBL/VIM-1, read-out: MIC) of the same compound?
Its MIC is no less than 256 mg/L.

And the MIC (K. pneumoniae; Klebsiella pneumoniae, strain 1104864, SHV-OSBL(b)/VIM-1, read-out: MIC)?
Its MIC is no less than 256 mg/L.

And the MIC (K. pneumoniae; Klebsiella pneumoniae, strain 1104866, SHV-OSBL(b)/VIM-1, read-out: MIC)?
The MIC was no less than 256 mg/L.

And the MIC (K. pneumoniae; Klebsiella pneumoniae, strain 1280442, SHV-OSBL(b)/VIM-1, read-out: MIC)?
Its MIC is no less than 256 mg/L.

What about the MIC (K. pneumoniae; Klebsiella pneumoniae, strain CDC-0049, NDM, read-out: MIC) of the same compound?
Its MIC is no less than 256 mg/L.

What about the MIC (K. pneumoniae; Klebsiella pneumoniae, strain CDC-0139, NDM-1, read-out: MIC) of the same compound?
The MIC was no less than 256 mg/L.

From publication PMC7038240 (Antimicrobial Agents and Chemotherapy, 2020)
